Laboratory results reported in EP4624466A1, “DEGRADER FOR DECOMPOSING CMET PROTEIN, AND PHARMACEUTICAL COMPOSITION COMPRISING SAME” (Innocure Therapeutics, Inc., priority 2022, dated 2024).
Where two headings read alike, the source gives them in different places.

How the values were obtained:
SNU-638 = assay: Cell viability / antiproliferative assay (WST-8), SNU-638; type: cell-based, human; conditions: read-out: SNU-638 IC50
Experimental: (§2) c-MET overexpressing human gastric cancer cell lines [MKN45] and [SNU638] were cultured in RPMI medium with 10% fetal bovine serum, penicillin (100U/ml), and streptomycin (100mg/ml), and c-MET exon 14 skipping mutant human gastric cancer cell lines [Hs746T] were cultured in DMEM media. The c-MET overexpressing human lung cancer cell line EBC-1 was cultured in MEM media with the addition of 10% fetal bovine serum, penicillin (100U/ml), and streptomycin (100mg/ml). […] The compound synthesized in accordance with the present invention was prepared with a raw material solution of 10 mM dissolved in DMSO (dimethyl sulfoxide), and was sequentially diluted and processed.
(§3) In order to observe the inhibitory activity on cell growth, cells were dispensed in a 96-well plate at a concentration of 5,000 cells/well, and then treated with the compound prepared at various concentrations for 72 hours. The viability of the cells was calculated using GraphicPad Prism 8.0 software by adding 10 ml per well of WST-8 (water soluble tetrazolium salt) sample, which reacts with dehydrogenase present in the electron transport system of mitochondria to produce formazon, incubated for 2 hours, and measured absorbance at 450 nm.

EBC-1 = assay: Cell viability / antiproliferative assay (WST-8), EBC-1; type: cell-based, human; conditions: read-out: EBC-1 IC50
Experimental: as §2, §3

c-MET [1] = target: T1, c-MET (Homo sapiens, UniProt P08581); assay: c-MET protein degradation (Simple Western), EBC-1; type: cell-based; set-up: assess the resolution of the compound of the present invention for c-MET expressed in cells; endogenous in cells; host or cells: EBC-1 (human lung cancer); conditions: c-MET overexpressing lung cancer cell line EBC-1, treated 48 hours; Table 2
Experimental: (§1) In order to assess the resolution of the compound of the present invention for c-MET expressed in cells, cells were dispensed in a 12-well plate at a concentration of 2 × 10^5 cells/well, and then gastric cancer cell lines were treated with samples for 24 hours and lung cancer cell lines were treated for 48 hours. Cell lysates were collected using a scraper on ice, centrifuged at 4°C15,000 rpm for 30 min to obtain a protein-containing supernatant. Protein expression was then measured using the Simple Western Automated Western Blot System Abby instrument using 3 µg of protein for each sample. SDS and heat-induced denaturation proteins were separated by molecular weight, attached to capillary, reacted with anti-c-MET or anti-GAPDH antibodies, which are primary antibodies, and then reacted with HRP-conjugated secondary antibodies, and analyzed the protein expression signal with compass software. Protein expression was normalized based on the expression value of GAPDH, and protein development in each sample was measured as a percentage (%) based on 100% of samples treated with 0.1% DMSO carriers, and DC50 (concentration of a compound where 50% protein inhibition is achieved) was calculated from the change in protein expression amount due to compound treatment.

c-MET [2] = target: T1, c-MET; assay: c-MET protein degradation (Simple Western), SNU-638; type: cell-based; set-up: assess the resolution of the compound of the present invention for c-MET expressed in cells; endogenous in cells; host or cells: SNU638 (human gastric cancer); conditions: c-MET overexpressing gastric cancer cell line SNU-638, treated 24 hours
Experimental: as §1

MKN-45 = assay: Cell viability / antiproliferative assay (WST-8), MKN-45; conditions: for IC50: Homo sapiens, MKN-45, 72 h, read-out: MKN-45 IC50;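 as to all read-outs here: MKN-45 is a human gastric cancer line overexpressing c-MET, growth inhibition read as WST-8 formazan absorbance at 450 nm after 2 h dye incubation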
Experimental: as §2, §3

c-MET [3] = target: T1, c-MET; assay: c-MET protein degradation (Simple Western), MKN-45; type: cell-based; set-up: assess the resolution of the compound of the present invention for c-MET expressed in cells; endogenous in cells; host or cells: MKN45 (human gastric cancer); conditions: c-MET overexpressing gastric cancer cell line MKN-45, treated 24 hours; Table 2
Summary of the method: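 Cells treated 24 h (gastric lines) or 48 h (lung lines); 3 µg lysate protein analysed by capillary Simple Western with anti-c-MET, normalized to GAPDH and expressed as % of 0.1% DMSO; DC50 from expression change.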

[4] = Homo sapiens, SNU-638 cells, 72 hours, WST-8, Table 2
[5] = Homo sapiens, EBC-1 cells, 72 hours, WST-8, Table 2

T1 sequence (P08581 25-1390): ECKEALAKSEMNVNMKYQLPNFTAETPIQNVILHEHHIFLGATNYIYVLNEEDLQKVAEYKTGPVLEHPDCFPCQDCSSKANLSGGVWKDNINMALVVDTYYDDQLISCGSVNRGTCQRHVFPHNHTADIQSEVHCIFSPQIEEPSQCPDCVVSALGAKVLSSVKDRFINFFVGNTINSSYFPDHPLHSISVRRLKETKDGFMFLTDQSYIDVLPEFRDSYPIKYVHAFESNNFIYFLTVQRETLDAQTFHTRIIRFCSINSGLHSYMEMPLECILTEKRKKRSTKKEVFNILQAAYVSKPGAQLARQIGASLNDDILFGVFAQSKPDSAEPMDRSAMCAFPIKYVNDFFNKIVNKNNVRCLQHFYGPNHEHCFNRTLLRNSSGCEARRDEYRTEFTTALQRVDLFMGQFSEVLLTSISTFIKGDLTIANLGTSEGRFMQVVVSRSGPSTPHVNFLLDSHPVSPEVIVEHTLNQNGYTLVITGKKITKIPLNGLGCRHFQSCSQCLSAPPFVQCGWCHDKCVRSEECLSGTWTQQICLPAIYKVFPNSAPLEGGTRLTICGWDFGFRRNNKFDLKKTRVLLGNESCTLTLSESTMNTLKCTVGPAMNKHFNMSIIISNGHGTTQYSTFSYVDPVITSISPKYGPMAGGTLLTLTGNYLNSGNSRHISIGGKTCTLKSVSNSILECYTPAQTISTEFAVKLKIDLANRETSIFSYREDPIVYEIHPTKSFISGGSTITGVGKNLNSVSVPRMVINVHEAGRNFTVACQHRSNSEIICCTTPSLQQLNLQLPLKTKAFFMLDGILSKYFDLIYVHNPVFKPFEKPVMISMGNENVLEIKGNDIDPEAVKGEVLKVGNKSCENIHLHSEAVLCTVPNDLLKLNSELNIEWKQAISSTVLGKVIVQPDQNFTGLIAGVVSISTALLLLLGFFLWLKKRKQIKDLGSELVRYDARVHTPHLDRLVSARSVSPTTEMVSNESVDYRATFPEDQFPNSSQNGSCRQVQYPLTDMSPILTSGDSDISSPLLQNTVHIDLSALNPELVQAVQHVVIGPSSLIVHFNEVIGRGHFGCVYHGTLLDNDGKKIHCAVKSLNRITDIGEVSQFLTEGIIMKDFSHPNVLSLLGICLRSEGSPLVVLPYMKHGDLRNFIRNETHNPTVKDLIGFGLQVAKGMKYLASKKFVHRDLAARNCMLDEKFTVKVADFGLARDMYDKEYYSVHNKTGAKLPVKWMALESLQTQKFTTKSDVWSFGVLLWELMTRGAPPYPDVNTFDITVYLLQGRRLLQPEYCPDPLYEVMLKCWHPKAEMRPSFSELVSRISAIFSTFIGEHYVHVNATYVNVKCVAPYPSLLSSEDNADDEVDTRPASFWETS

Compound	DC50 (c-MET [1]) [nM]	DC50 (c-MET [2]; Table 2) [nM]	IC50 (MKN-45) [nM]	IC50 (EBC-1; Homo sapiens, EBC-1, 72 h) [nM]	DC50 (c-MET [3]) [nM]	IC50 (SNU-638; Homo sapiens, SNU-638, 72 h) [nM]	other results
Cn1cc(-c2cnc3c(nnn3C[C@@H]3CN(c4ncc(-c5ccc(CN6CCN(c7ccc(NC8CCC(=O)NC8=O)cc7F)CC6)cc5)cn4)CCO3)n2)cn1 (stereo partly drawn) [ICT-0001403, 3-((3-fluoro-4-(4-(4-(2-((S)-2-((5-(1-methyl-1H-pyrazole-4-yl)-1H-[1,2,3]triazolo[4,5-b]pyrazine-1-yl)methyl)morpholino)pyrimidine-5-yl)benzyl)piperazine-1-yl)phenyl)amino)piperidine-2,6-dione]							IC50 (SNU-638; Homo sapiens, SNU-638 cells, 72 hours, WST-8, Table 1): < 100 nM; IC50 (EBC-1; Homo sapiens, EBC-1 cells, 72 hours, WST-8, Table 1): < 100 nM
N#Cc1cccc(-c2ccc(=O)n(Cc3cccc(-c4ncc(OCC5CCN(CC6CN(c7ccc(NC8CCC(=O)NC8=O)cc7F)C6)CC5)cn4)c3)n2)c1 (centres unmarked) [ICT-0001425]	< 100	< 100					IC50 (SNU-638; SNU-638 cells, 72 hours, WST-8, Table 2): < 100 nM; IC50 (EBC-1; EBC-1 cells, 72 hours, WST-8, Table 2): < 100 nM
N#Cc1cccc(-c2ccc(=O)n(Cc3cccc(-c4ncc(OCC5CCN(CC(=O)N6CCN(CC7CCN(c8ccc(NC9CCC(=O)NC9=O)cc8F)CC7)CC6)CC5)cn4)c3)n2)c1 (centres unmarked) [ICT-0001468, 3-(1-{[3-(5-{[1-(2-{4-[(1-{4-[(2,6-dioxopiperidin-3-yl)amino]-2-fluorophenyl}piperidine-4-yl)methyl]piperazine-1-yl}-2-oxoethyl)piperidine-4-yl]methoxy}pyrimidine-2-yl)phenyl]methyl}-6-oxo-1,6-dihydropyridazine-3-yl)benzonitrile]	< 100	100 to 1000					IC50 (SNU-638; [4]): < 100 nM; IC50 (EBC-1; [5]): < 100 nM
Cc1nn(C2CCC(=O)NC2=O)c(=O)c2cc(N3CCN(CCN4CCC(COc5cnc(-c6cccc(Cn7nc(-c8cccc(C#N)c8)ccc7=O)c6)nc5)CC4)CC3)ccc12 (centres unmarked) [ICT-0001278, 3-(1-{[3-(5-{[1-(2-{4-[3-(2,6-dioxopiperidin-3-yl)-1-methyl-4-oxo-3,4-dihydropthalazine-6-yl]piperazine-1-yl}ethyl)piperidine-4-day]methoxy}pyrimidine-2-yl)phenyl]methyl}6-oxo-1,6-dihydropyridazine-3-yl)benzonitrile]	> 1000		< 100				
Cc1nn(C2CCC(=O)NC2=O)c(=O)c2ccc(N3CCN(C(=O)C4CN(CC(=O)N5CCC(COc6cnc(-c7cccc(Cn8nc(-c9cccc(C#N)c9)ccc8=O)c7)nc6)CC5)C4)CC3)cc12 (centres unmarked) [ICT-0001257]			< 100	< 100	< 100		
N#Cc1cccc(-c2ccc(=O)n(Cc3cccc(-c4ncc(OCC5CCN(C(=O)CN6CCN(c7ccc(NC8CCC(=O)NC8=O)cc7F)CC6)CC5)cn4)c3)n2)c1 (centres unmarked) [ICT-0001494]	< 100	< 100		< 100		< 100	
N#Cc1cccc(-c2ccc(=O)n(Cc3cccc(-c4ncc(OCC5CCN(CC(=O)N6CCC(CN7CCN(c8ccc(NC9CCC(=O)NC9=O)cc8F)CC7)CC6)CC5)cn4)c3)n2)c1 (centres unmarked) [ICT-0001447, 3-(1-{[3-(5-{[1-(2-{4-[(4-{4-[(2,6-dioxopiperidin-3-yl)amino]-2-fluorophenyl}piperazine-1-yl)methyl]piperidine-1-yl}-2-oxoethyl)piperidine-4-yl]methoxy}pyrimidine-2-yl)phenyl]methyl}-6-oxo-1,6-dihydropyridazine-3-yl)benzonitrile]	< 100	100 to 1000					IC50 (SNU-638; [4]): < 100 nM; IC50 (EBC-1; [5]): < 100 nM
N#Cc1cccc(-c2ccc(=O)n(Cc3cccc(-c4ncc(OCC5CCN(CCN6CCN(c7ccc8c(=O)n(C9CCC(=O)NC9=O)ncc8c7)CC6)CC5)cn4)c3)n2)c1 (centres unmarked) [ICT-0001276, 3-(1-{[3-(5-{[1-(2-{4-[2-(2,6-dioxopiperidin-3-yl)-1-oxo-1,2-dihydropetalazine-6-yl]piperazine-1-il}ethyl)piperidine-4-il]methoxy}pyrimidine-2-yl)phenyl]methyl}-6-oxo-1,6-dihydropyridazine-3-yl)benzonitrile]	> 1000		< 100		< 100	< 100	
Cn1cc(-c2cnc3c(nnn3C[C@@H]3CN(c4ncc(-c5ccc(CN6CCN(CC(=O)N7CCN(c8ccc(NC9CCC(=O)NC9=O)cc8F)CC7)CC6)cc5)cn4)CCO3)n2)cn1 (some centres unmarked) [ICT-0001379]							IC50 (SNU-638; SNU-638 cells, 72 hours, WST-8, Table 1): < 100 nM; IC50 (EBC-1; EBC-1 cells, 72 hours, WST-8, Table 1): < 100 nM; DC50 (c-MET [2]; Table 1): < 100 nM
Cc1nn(C2CCC(=O)NC2=O)c(=O)c2cc(N3CCN(c4ccc(NCC(=O)N5CCC(COc6cnc(-c7cccc(Cn8nc(-c9cccc(C#N)c9)ccc8=O)c7)nc6)CC5)cc4)CC3)ccc12 (centres unmarked) [ICT-0001262, 3-(1-(3-(5-((1-((4-(4-(3-(2,6-dioxopiperidin-3-yl)-1-methyl-4-oxo-3,4-dihydropthalazine-6-yl)piperazine-1-yl)phenyl)glycy)piperidine-4-il)methoxy)pyrimidine-2-yl)benzyl)6-oxo-1,6-dihydropyridazine-3-yl)benzonitrile]			< 100	< 100	< 100		
N#Cc1cccc(-c2ccc(=O)n(Cc3cccc(-c4ncc(OCC5CCN(C(=O)CN6CCN(c7ccc8c(=O)n(C9CCC(=O)NC9=O)ncc8c7)CC6)CC5)cn4)c3)n2)c1 (centres unmarked) [ICT-0000979, 3-(1-{[3-(5-{[1-(2-{4-[2-(2,6-dioxopiperidine-3-yl)-1-oxo-1,2-dihydrophthalazine-6-yl]piperazine-1-day}acetyl)piperidine-4-yl]methoxy}pyrimidine-2-yl)phenyl]methyl}-6-oxo-1,6-dihydropyridazine-3-yl)benzonitrile]		100 to 1000			< 100	100 to 1000	MKN-45 IC50 (MKN-45; MKN-45 cells, 72 hours, WST-8, Table 2): A.
N#Cc1cccc(-c2ccc(=O)n(Cc3cccc(-c4ncc(OCC5CCN(c6ccc(NC7CCC(=O)NC7=O)cc6F)CC5)cn4)c3)n2)c1 (centres unmarked) [ICT-0001383]	< 100	< 100		< 100		< 100	
N#Cc1cccc(-c2ccc(=O)n(Cc3cccc(-c4ncc(OCC5CCN(CC(=O)N6CC(N7CCN(c8ccc9c(=O)n(C%10CCC(=O)NC%10=O)ncc9c8)CC7)C6)CC5)cn4)c3)n2)c1 (centres unmarked) [ICT-0001232]	< 100	< 100	< 100	< 100	< 100		
N#Cc1cccc(-c2ccc(=O)n(Cc3cccc(-c4ncc(-c5cccc(CN6CCN(c7ccc(NC8CCC(=O)NC8=O)cc7F)CC6)c5)cn4)c3)n2)c1 (centres unmarked) [ICT-0001434]	< 100	> 1000		< 100		< 100	
N#Cc1cccc(-c2ccc(=O)n(Cc3cccc(-c4ncc(-c5cccc(CN6CCN(c7ccc(C8CCC(=O)NC8=O)cn7)CC6)c5)cn4)c3)n2)c1 (centres unmarked) [ICT-0001449]	< 100	> 1000		< 100		< 100	
Cc1nn(C2CCC(=O)NC2=O)c(=O)c2c(NCC(=O)N3CCC(CN4CCC(COc5cnc(-c6cccc(Cn7nc(-c8cccc(C#N)c8)ccc7=O)c6)nc5)CC4)CC3)cccc12 (centres unmarked) [ICT-0000980]		> 1000	< 100		< 100	100 to 1000	
N#Cc1cccc(-c2ccc(=O)n(Cc3cccc(-c4ncc(OCC5CCN(CCN6CCN(c7ccc(NC8CCC(=O)NC8=O)cc7F)CC6)CC5)cn4)c3)n2)c1 (centres unmarked) [ICT-0001433, 3-(1-(3-(5-((1-(1-(2-(4-((2,6-dioxopiperidine-3-yl)amino)-2-fluorophenyl)piperazine-1-il)ethyl)piperidine-4-il)methoxy)pyrimidine-2-yl)benzyl)6-oxo-1,6-dihydropyridazine-3-yl)benzonitrile]	< 100	< 100		< 100		< 100	
N#Cc1cccc(-c2ccc(=O)n(Cc3cccc(-c4ncc(-c5cccc(CN6CCC(CN7CCN(c8ccc(NC9CCC(=O)NC9=O)cc8F)CC7)CC6)c5)cn4)c3)n2)c1 (centres unmarked) [ICT-0001450]	< 100			< 100		< 100	
